Laboratory results taken from patent US20200017495A1, “NOVEL HETEROCYCLIC COMPOUNDS AND THEIR USE IN PREVENTING OR TREATING BACTERIAL INFECTIONS” (priority 2017, published 2020).

Legend:
[1] = system: Providencia rettgeri (PRE) isolates; assay: MIC of compounds alone and combined with antibacterials, broth microdilution (CLSI); type: cell-based
Experimental: (§1) Method 2: MIC of Compounds Alone and Combined with Antibacterials Against Bacterial Isolates
(§2) Compounds of the present invention were assessed against genotyped bacterial strains (Table 3, 4) alone or in combination with an antibacterial (Table 2). […] Log phase bacterial suspensions were adjusted to a final density of 5.10^5 CFU/mL in cation-adjusted Mueller-Hinton broth (ca-MHB; Becton-Dickinson and Company) and added to each well (98 μL). Microplates were incubated for 16-20 h at 35° C. in ambient air. The MIC of the compounds was defined as the lowest concentration of said compounds that prevented bacterial growth as read by visual inspection. The MIC of ATB at each compound concentration was defined as the lowest concentration of ATB that prevented bacterial growth as read by visual inspection.

[2] = system: Morganella morganii (MMO) isolates; assay: as above; type: cell-based
Experimental: as §1, §2

CC(C)(O/N=C(\C(=O)N[C@@H]1C(=O)N2C(C(=O)[O-])=C(C[n+]3ccccc3)CS[C@H]12)c1csc(N)n1)C(=O)O [CAZ, Ceftazidime]
MIC ATB in combination ([1]; PRE UFR99, AF2 @ 8 μg/mL): >128 µg/mL | MIC ATB in combination ([1]; PRE UFR99, AF3 @ 8 μg/mL): >128 µg/mL | MIC ATB in combination ([1]; strain PRE UFR96, with AF2 @ 8 μg/mL): <0.25 µg/mL | MIC ATB in combination ([1]; strain PRE UFR96, with AF3 @ 8 μg/mL): <0.25 µg/mL | MIC ATB in combination ([1]; strain PRE UFR97, with AF2 @ 8 μg/mL): >128 µg/mL | MIC ATB in combination ([1]; strain PRE UFR97, with AF3 @ 8 μg/mL): >128 µg/mL | MIC ([1]; strain PRE UFR236, genotype TEM-1, OXA-48): 32 µg/mL | MIC ATB in combination ([1]; strain PRE UFR236, with AF2 @ 8 μg/mL): 0.5 µg/mL | MIC ATB in combination ([1]; strain PRE UFR236, with AF3 @ 8 μg/mL): <=0.25 μg/mL | MIC ATB in combination ([2]; MMO 200321, AF2 @ 8 μg/mL): <=0.25 μg/mL | MIC ATB in combination ([2]; MMO 200321, AF3 @ 8 μg/mL): <=0.25 μg/mL | MIC ATB in combination ([2]; MMO UFR144, AF2 @ 8 μg/mL): <=0.25 μg/mL | MIC ATB in combination ([2]; MMO UFR144, AF3 @ 8 μg/mL): <=0.25 μg/mL | MIC ATB in combination ([2]; MMO UFR240, AF2 @ 8 μg/mL): <=0.25 μg/mL | MIC ATB in combination ([2]; MMO UFR240, AF3 @ 8 μg/mL): <=0.25 μg/mL | MIC ATB in combination ([2]; MMO UFR241, AF2 @ 8 μg/mL): <=0.25 μg/mL | MIC ATB in combination ([2]; MMO UFR241, AF3 @ 8 μg/mL): <=0.25 μg/mL | MIC ATB in combination ([2]; MMO UFR242, AF2 @ 8 μg/mL): <=0.25 μg/mL | MIC ATB in combination ([2]; MMO UFR242, AF3 @ 8 μg/mL): <=0.25 μg/mL | MIC ATB in combination ([2]; MMO UFR243, AF2 @ 8 μg/mL): <=0.25 μg/mL | MIC ATB in combination ([2]; MMO UFR243, AF3 @ 8 μg/mL): <=0.25 μg/mL | MIC ATB in combination ([2]; MMO UFR244, AF2 @ 8 μg/mL): <=0.25 μg/mL | MIC ATB in combination ([2]; MMO UFR244, AF3 @ 8 μg/mL): <=0.25 μg/mL | MIC ATB in combination ([2]; MMO UFR245, AF2 @ 8 μg/mL): <=0.25 μg/mL | MIC ATB in combination ([2]; MMO UFR245, AF3 @ 8 μg/mL): <=0.25 μg/mL | MIC ATB in combination ([2]; MMO UFR246, AF2 @ 8 μg/mL): <=0.25 μg/mL | MIC ATB in combination ([2]; MMO UFR246, AF3 @ 8 μg/mL): <=0.25 μg/mL | MIC ATB in combination ([2]; MMO UFR247, AF2 @ 8 μg/mL): <=0.25 μg/mL | MIC ATB in combination ([2]; MMO UFR247, AF3 @ 8 μg/mL): <=0.25 μg/mL | MIC ([2]; strain MMO 200321, genotype TEM-1, CTX-M-15, OXA-1): 16 µg/mL | MIC ([2]; strain MMO UFR144, genotype TEM-1, CTX-M-15): 8 µg/mL | MIC ATB in combination ([2]; strain MMO UFR145, with AF2 @ 8 μg/mL): >128 µg/mL | MIC ATB in combination ([2]; strain MMO UFR145, with AF3 @ 8 μg/mL): >128 µg/mL | MIC ([2]; strain MMO UFR240, genotype CTX-M-9): 0.5 µg/mL | MIC ([2]; strain MMO UFR241, genotype TEM-1, CTX-M-15): 8 µg/mL | MIC ([2]; strain MMO UFR242, genotype TEM-52): 32 µg/mL | MIC ([2]; strain MMO UFR243, genotype DHA-1): 1 µg/mL | MIC ([2]; strain MMO UFR244, genotype DHA-1): 0.5 µg/mL | MIC ([2]; strain MMO UFR245, genotype DHA-1): 8 µg/mL | MIC ([2]; strain MMO UFR246, genotype DHA-1): 4 µg/mL | MIC ([2]; strain MMO UFR247, genotype DHA-1): 0.5 µg/mL
